Reference: patent publication US20100068260A1, “Methods, Compositions and Device for Directed and Controlled Heating and Release of Agents” (priority 2007, published 2010)

Assays:
[1] = UV-Vis analysis of disulfide bond stability to heat and hydroxylamine; type: physicochemical; conditions: with and without hydroxylamine solution; room temperature to 90° C., 15 minutes each; FIG. 18-19
Protocol: The solution was heated for 15 minutes at each temperature and allowed to cool to room temp before the spectra were taken. ˜1 mg of DTT was added to the solution to cleave the remaining disulfide bonds.

[2] = UV-Vis detection of chromophore release on heating liposomes (DPPC, DSPE-PEG2000, SATA-DSPE, PDP-PE); type: physicochemical; conditions: negative control without hydroxylamine, heated to 90° C.; FIG. 16
Protocol: To deprotect the thiol group on the liposomes 100 μL of 0.5 M hydroxylamine with 25 mM EDTA pH 7.3 in PBS buffer were added to 50 μL of PBS buffer containing the liposomes. The mixture was gently mixed over an hour. The procedure for deprotection was taken from Pierce.
50 μL of liposomes formed by the second method were diluted into 650 μL of PBS. UV-Vis spectra were taken of PBS as a blank, the liposomes in PBS, and hydroxylamine solution in PBS all at room temperature.
The liposomes were heated to 40 to 90° C. at 10 degree intervals for 10 minutes each, upon cooling to room temperature UV-Vis spectra was taken; the spectra are shown in FIG. 15.
As a negative control, the same procedure was performed on the same concentration of liposomes and PBS without the hydroxylamine solution. After heating the negative control to 90° C. DTT, which serves to cleave any disulfide bonds present, was added to visualize the amount of PDP-PE that is present in the liposomes, as shown in FIG. 16.

reduction of disulfide on heating [1]	reduction of PDP-PE with only heat [2]	SMILES
reduction is occurring		c1ccc(SSc2ccccn2)nc1 [2,2′ dithiodipyridine, 2,2′-dithiodipyridine]
	does not seem to be reduced	CCCCCCCCCCCCCCCC(=O)OC[C@H](COP(=O)(O)OCCNC(=O)CCSSc1ccccn1)OC(=O)CCCCCCCCCCCCCCC [PDP-PE, N-[3-(2-Pyridyldithio)propionyl]-1,2-dipalmitoyl-sn-glycero-3-phosphoethanolamine]
